Experimental data taken from ChEMBL document CHEMBL1130277, “Three-dimensional quantitative structure-activity relationships from molecular similarity matrices and genetic neural networks. 2. Applications” (J Med Chem, 1997).

What follows are compounds tested against GABA-A receptor; anion channel.
Description: Inhibition on Benzodiazepine receptor

pIC50	Compound
7.02	CC(C)(C)COc1cc2c3ccccc3nc-2c[nH]1
5.93	Cn1c2ccccc2c2c3[nH]c4ccccc4c3ncc21
6.15	Clc1cccc2[nH]c3c4c5ccccc5nc-4c[nH]c3c12
6.65	Cc1ccc2[nH]c3c4c5ccccc5nc-4c[nH]c3c2c1
6.29	CC(C)Oc1cc2c(cn1)[nH]c1ccccc12
7.01	CCCCOc1cc2c(cn1)[nH]c1ccccc12
7.62	CCOc1cc2c(cn1)[nH]c1ccccc12
7.96	CCCOc1cc2c(cn1)[nH]c1ccccc12
6.64	CCCCc1cc2c(cn1)[nH]c1ccccc12
8.1	Cc1ccc2c(c1)[nH]c1c3c4ccccc4nc-3c[nH]c12
6.17	CCOC(=O)c1cc2c(cn1)Cc1ccccc1-2
6.12	CC(C)(C)COC(=O)c1cc2c3ccccc3nc-2c[nH]1
5.16	Cc1cccc2[nH]c3c4c5ccccc5nc-4c[nH]c3c12
9.22	O=C1C2C=Nc3ccccc3C2=NN1c1ccc(Cl)cc1 (stereo not given) [CGS-9896]

Further lines, the compound ahead of its results:

Compound	pIC50
COc1cc2c(cn1)[nH]c1ccccc12	6.91
O=[N+]([O-])c1cc2c3ccccc3nc-2c[nH]1	6.9
CCOC(=O)c1cc2c(cn1)nc(O)c1ccccc12	5.62
COc1cccc2[nH]c3c4c5ccccc5nc-4c[nH]c3c12	6.6
CC(C)CCOc1cc2c3ccccc3nc-2c[nH]1	6.37
COC(=O)c1cc2c(cn1)[nH]c1ccccc12 [BETA-CCM]	8.3
O=C1C2C=Nc3ccccc3C2=NN1c1ccccc1 (stereo not given) [CGS-8216]	9.4
Cc1nccc2c1[nH]c1ccccc12 [HARMAN]	4.91
c1ccc2c(c1)[nH]c1cnccc12 [NORHARMANE]	5.79

These compounds were tested on Leishmania amazonensis (assay: Inhibition on leishmania mexicana amazonensis.).
Assay type: functional, organism-based

IC50 [µM]	Compound
2260	COc1cc(C2=NCCN2)ccc1OCCCOc1ccc(C2=NCCN2)cc1OC
1160	N=C(N)c1ccc(NCCCCCNc2ccc(C(=N)N)cc2N)c(N)c1
991	N=C(N)c1ccc(NCCCCCCNc2ccc(C(=N)N)cc2N)c(N)c1
1790	COc1cc(C(=N)N)ccc1OCCCOc1ccc(C(=N)N)cc1OC
7570	N=C(N)c1ccc(OCCCCOc2ccc(C(=N)N)cc2N)c(N)c1
1720	c1cc(C2=NCCN2)ccc1OCCCCCOc1ccc(C2=NCCN2)cc1
15800	N=C(N)c1ccc(OCCOc2ccc(C(=N)N)cc2)cc1
22600	N=C(N)c1ccc(OCCOc2ccc(C(=N)N)cc2N)c(N)c1
671	N=C(N)c1ccc(NCCCCNc2ccc(C(=N)N)cc2)cc1
820	N=C(N)c1ccc(OCCCCCOc2ccc(C(=N)N)cc2)cc1 [PENTAMIDINE]
851	N=C(N)c1ccc(OCCCOc2ccc(C(=N)N)cc2)cc1 [PROPAMIDINE]

The remaining lines, values behind:

Compound	IC50 [µM]
COc1cc(C2=NCCN2)ccc1OCCCCCOc1ccc(C2=NCCN2)cc1OC	4040
COc1cc(C2=NCCN2)ccc1OCCCCOc1ccc(C2=NCCN2)cc1OC	6410
c1cc(C2=NCCN2)ccc1OCCCCOc1ccc(C2=NCCN2)cc1	2710
N=C(N)c1ccc(NCCCCCCNc2ccc(C(=N)N)cc2)cc1	289
COc1cc(C(=N)N)ccc1OCCCCCOc1ccc(C(=N)N)cc1OC	3030
N=C(N)c1ccc(OCCCCOc2ccc(C(=N)N)cc2Cl)c(Cl)c1	1330
N=C(N)c1ccc(NCCCNc2ccc(C(=N)N)cc2[N+](=O)[O-])c([N+](=O)[O-])c1	4830
N=C(N)c1ccc(OCCCCCOc2ccc(C(=N)N)cc2Cl)c(Cl)c1	703
N=C(N)c1ccc(OCCCOc2ccc(C(=N)N)cc2N)c(N)c1	3500
N=C(N)c1ccc(NCCCNc2ccc(C(=N)N)cc2)cc1	687
N=C(N)c1ccc(OCCCCCOc2ccc(C(=N)N)cc2[N+](=O)[O-])c([N+](=O)[O-])c1	2000
N=C(N)c1ccc(OCCCCCOc2ccc(C(=N)N)cc2Br)c(Br)c1	678
N=C(N)c1ccc(NCCCCCNc2ccc(C(=N)N)cc2)cc1	558
N=C(N)c1ccc(NCCNc2ccc(C(=N)N)cc2N)c(N)c1	26200
N=C(N)c1cccc(OCCCCOc2cccc(C(=N)N)c2)c1	5430
N=C(N)c1cccc(OCCCCCCOc2cccc(C(=N)N)c2)c1	1040
N=C(N)c1ccc(OCCCCOc2ccc(C(=N)N)cc2)cc1	1590
N=C(N)c1cccc(OCCCCCOc2cccc(C(=N)N)c2)c1	2130
N=C(N)c1ccc(NCCCCCNc2ccc(C(=N)N)cc2[N+](=O)[O-])c([N+](=O)[O-])c1	1130
N=C(N)c1cccc(OCCCOc2cccc(C(=N)N)c2)c1	6100
COc1cc(C(=N)N)ccc1OCCCCOc1ccc(C(=N)N)cc1OC	10000
N=C(N)c1ccc(NCCCCNc2ccc(C(=N)N)cc2N)c(N)c1	7870
N=C(N)c1ccc(OCCOc2ccc(C(=N)N)cc2[N+](=O)[O-])c([N+](=O)[O-])c1	50000
N=C(N)c1ccc(OCCCCOc2ccc(C(=N)N)cc2[N+](=O)[O-])c([N+](=O)[O-])c1	5600
c1cc(C2=NCCN2)ccc1OCCCOc1ccc(C2=NCCN2)cc1	1770
N=C(N)c1ccc(OCCCCCCOc2ccc(C(=N)N)cc2)cc1 [HEXAMIDINE]	396
